Test results published in patent US10770169B2, “Method of providing a treatment to a subject based on a dynamic pathway map” (THE REGENTS OF THE UNIVERSITY OF CALIFORNIA, priority 2010, dated 2020).
Where two headings read alike, the source gives them in different places.

System: panel of 55 breast cancer cell lines
Test: Cell growth inhibition assay (Cell Titer Glo, 72 h, 9 doses; GI50, TGI, LC50)
Format: cell-based, human
Conditions: Homo sapiens, read-out: GI50 (converted)
[1] = 600MPE cell line, censored GI50 values
[2] = AU565, AU565 cell line, censored GI50 values
[3] = BT-20, BT20 cell line, censored GI50 values
[4] = BT-474, BT474 cell line, censored GI50 values
[5] = BT-483, BT483 cell line, censored GI50 values
[6] = BT-549, BT549 cell line, censored GI50 values
[7] = CAMA-1, CAMA1 cell line, censored GI50 values
[8] = HCC38, HCC38 cell line, censored GI50 values
[9] = HCC70, HCC70 cell line, censored GI50 values
[10] = HCC202, HCC202 cell line, censored GI50 values
[11] = HCC1143, HCC1143 cell line, censored GI50 values
[12] = HCC1187, HCC1187 cell line, censored GI50 values
[13] = HCC1395, HCC1395 cell line, censored GI50 values
[14] = HCC1419, HCC1419 cell line, censored GI50 values
[15] = HCC1428, HCC1428 cell line, censored GI50 values
[16] = HCC1500, HCC1500 cell line, censored GI50 values
[17] = HCC1806, HCC1806 cell line, censored GI50 values
[18] = HCC1937, HCC1937 cell line, censored GI50 values
[19] = HCC1954, HCC1954 cell line, censored GI50 values
[20] = HCC2185 cell line, censored GI50 values
[21] = HCC3153 cell line, censored GI50 values
[22] = MCF7, MCF7 cell line, censored GI50 values
[23] = MDA-MB-134-VI, MDAMB134VI cell line, censored GI50 values
[24] = MDA-MB-157, MDAMB157 cell line, censored GI50 values
[25] = MDA-MB-175-VII, MDAMB175VII cell line, censored GI50 values
[26] = MDA-MB-231, MDAMB231 cell line, censored GI50 values
[27] = MDA-MB-361, MDAMB361 cell line, censored GI50 values
[28] = MDA-MB-415, MDAMB415 cell line, censored GI50 values
[29] = MDA-MB-436, MDAMB436 cell line, censored GI50 values
[30] = MDA-MB-468, MDAMB468 cell line, censored GI50 values
[31] = SK-BR-3, SKBR3 cell line, censored GI50 values
[32] = SUM52PE, SUM52PE cell line, censored GI50 values
[33] = SUM149PT, SUM149PT cell line, censored GI50 values
[34] = SUM185PE, SUM185PE cell line, censored GI50 values
[35] = SUM225CWN, SUM225CWN cell line, censored GI50 values
[36] = SUM1315MO2, SUM1315MO2 cell line, censored GI50 values
[37] = SUM-159-PT, SUM159PT cell line, censored GI50 values
[38] = T47D, T47D cell line, censored GI50 values
[39] = UACC-893, UACC893 cell line, censored GI50 values
[40] = ZR-75-1, ZR751 cell line, censored GI50 values

`CNC(=O)c1cc(Oc2ccc(NC(=O)Nc3ccc(Cl)c(C(F)(F)F)c3)cc2)ccn1` [Sorafenib] showed a GI50 [1] of 45.7 µM, a GI50 [2] of 178 µM and a GI50 (AU565, cell line AU565) of 178 µM. It also gave a GI50 [3] of 63.1 µM, a GI50 (BT-20, cell line BT20) of 63.1 µM and a GI50 [4] of 100 µM. It also gave a GI50 (BT-474, cell line BT474) of 100 µM, a GI50 [5] of 11.7 µM and a GI50 (BT-483, cell line BT483) of 11.7 µM. For the same compound, the GI50 [6] was 120 µM, the GI50 (BT-549, cell line BT549) was 120 µM and the GI50 [7] was 95.5 µM. For the same compound, the GI50 (CAMA-1, cell line CAMA1) was 95.5 µM, the GI50 [8] was 87.1 µM and the GI50 (HCC38, cell line HCC38) was 87.1 µM. It also gave a GI50 [9] of 35.5 µM, a GI50 (HCC70, cell line HCC70) of 35.5 µM and a GI50 [10] of 72.4 µM. The GI50 (HCC202, cell line HCC202) was 72.4 µM, the GI50 [11] was 58.9 µM and the GI50 (HCC1143, cell line HCC1143) was 58.9 µM. The GI50 [12] was 32.4 µM, the GI50 (HCC1187, cell line HCC1187) was 32.4 µM and the GI50 [13] was 47.9 µM. It also gave a GI50 (HCC1395, cell line HCC1395) of 47.9 µM, a GI50 [14] of 417 µM and a GI50 (HCC1419, cell line HCC1419) of 417 µM. For the same compound, the GI50 [15] was 45.7 µM, the GI50 (HCC1428, cell line HCC1428) was 45.7 µM and the GI50 [16] was 178 µM. The GI50 (HCC1500, cell line HCC1500) was 178 µM, the GI50 [17] was 148 µM and the GI50 (HCC1806, cell line HCC1806) was 148 µM. For the same compound, the GI50 [18] was 513 µM, the GI50 (HCC1937, cell line HCC1937) was 513 µM and the GI50 [19] was 55 µM. It also gave a GI50 (HCC1954, cell line HCC1954) of 55 µM, a GI50 [20] of 14.8 µM and a GI50 [21] of 120 µM. The GI50 [22] was 64.6 µM, the GI50 (MCF7, cell line MCF7) was 64.6 µM and the GI50 [23] was 28.8 µM. The GI50 [24] was 240 µM, the GI50 [25] was 81.3 µM and the GI50 [26] was 89.1 µM. For the same compound, the GI50 [27] was 60.3 µM, the GI50 [28] was 95.5 µM and the GI50 [29] was 51.3 µM. It also gave a GI50 [30] of 158 µM, a GI50 [31] of 70.8 µM and a GI50 [32] of 1.7 µM. The GI50 [33] was 15.8 µM, the GI50 [34] was 1.48 µM and the GI50 [35] was 40.7 µM. The GI50 [36] was 186 µM, the GI50 [37] was 21.9 µM and the GI50 [38] was 25.7 µM. For the same compound, the GI50 [39] was 331 µM, the GI50 [40] was 45.7 µM and the GI50 (cell line 600MPE) was 45.7 µM. The GI50 (cell line HCC2185) was 14.8 µM and the GI50 (cell line HCC3153) was 120 µM.
With `CCN(CC)CCNC(=O)c1c(C)[nH]c(/C=C2\C(=O)Nc3ccc(F)cc32)c1C` [Sunitinib Malate] the GI50 [1] was 4.27 µM, the GI50 [2] was 3.8 µM and the GI50 (AU565, cell line AU565) was 3.8 µM. The GI50 [3] was 16.6 µM, the GI50 (BT-20, cell line BT20) was 16.6 µM and the GI50 [4] was 17 µM. For the same compound, the GI50 (BT-474, cell line BT474) was 17 µM, the GI50 [5] was 18.6 µM and the GI50 (BT-483, cell line BT483) was 18.6 µM. The GI50 [6] was 5.13 µM, the GI50 (BT-549, cell line BT549) was 5.13 µM and the GI50 [7] was 8.71 µM. For the same compound, the GI50 (CAMA-1, cell line CAMA1) was 8.71 µM, the GI50 [8] was 5.75 µM and the GI50 (HCC38, cell line HCC38) was 5.75 µM. It also gave a GI50 [9] of 2.51 µM, a GI50 (HCC70, cell line HCC70) of 2.51 µM and a GI50 [10] of 9.33 µM. It also gave a GI50 (HCC202, cell line HCC202) of 9.33 µM, a GI50 [11] of 6.92 µM and a GI50 (HCC1143, cell line HCC1143) of 6.92 µM. The GI50 [12] was 5.01 µM, the GI50 (HCC1187, cell line HCC1187) was 5.01 µM and the GI50 [13] was 4.68 µM. It also gave a GI50 (HCC1395, cell line HCC1395) of 4.68 µM, a GI50 [14] of 17.8 µM and a GI50 (HCC1419, cell line HCC1419) of 17.8 µM. It also gave a GI50 [15] of 5.13 µM, a GI50 (HCC1428, cell line HCC1428) of 5.13 µM and a GI50 [16] of 6.46 µM. The GI50 (HCC1500, cell line HCC1500) was 6.46 µM, the GI50 [17] was 5.37 µM and the GI50 (HCC1806, cell line HCC1806) was 5.37 µM. For the same compound, the GI50 [18] was 6.92 µM, the GI50 (HCC1937, cell line HCC1937) was 6.92 µM and the GI50 [19] was 5.62 µM. For the same compound, the GI50 (HCC1954, cell line HCC1954) was 5.62 µM, the GI50 [20] was 20.4 µM and the GI50 [21] was 11 µM. The GI50 (LY2 cell line, censored GI50 values) was 6.46 µM, the GI50 [22] was 5.89 µM and the GI50 (MCF7, cell line MCF7) was 5.89 µM. It also gave a GI50 [23] of 10.7 µM, a GI50 [24] of 6.31 µM and a GI50 [25] of 5.5 µM. The GI50 [26] was 3.63 µM, the GI50 [27] was 11.7 µM and the GI50 [28] was 5.62 µM. For the same compound, the GI50 [29] was 11.2 µM, the GI50 (MDA-MB-453, MDAMB453 cell line, censored GI50 values) was 4.17 µM and the GI50 [30] was 4.47 µM. The GI50 [31] was 6.76 µM, the GI50 [32] was 1.15 µM and the GI50 [33] was 2.69 µM. For the same compound, the GI50 [34] was 1.05 µM, the GI50 [35] was 6.31 µM and the GI50 [36] was 7.41 µM. For the same compound, the GI50 [37] was 1.55 µM, the GI50 [38] was 8.32 µM and the GI50 [39] was 0.871 µM. The GI50 [40] was 13.2 µM, the GI50 (ZR-75B, ZR75B cell line, censored GI50 values) was 7.59 µM and the GI50 (cell line 600MPE) was 4.27 µM. The GI50 (cell line HCC2185) was 20.4 µM, the GI50 (cell line HCC3153) was 11 µM and the GI50 (cell line LY2) was 6.46 µM.
